Blank lines part the entries; values can stand above or below the substance they belong to.
Legend:
[1] = Oven ageing of stabilized polypropylene plaques (25 mil) at 150° C., oxidative stability
Procedure: Unstabilized polypropylene powder (Hercules Profax 6501) is thoroughly blended with the indicated amount of additive. The blended materials are then milled on a two roll mill at 182° C. for 5 minutes, after which time the stabilized polypropylene is sheeted from the mill and allowed to cool. The milled polypropylene is then cut into pieces and compression molded on a hydraulic press at 220° C. and 175 psi (1.2×10^6 Pa) into 25 mil thick plaques. The plaques are then exposed to air in a force draft oven maintained at 150° C. The plaques are considered to have failed on showing the first signs of decomposition (e.g. cracking or brown edges).

[2] = Oxidation stability of polypropylene stretched tapes (2 mil) in forced draft oven at 115° C.; details: additive 0.2%
Procedure: The oxidation stability of milled polypropylene samples (prepared as in Examples 9 and 10), containing the indicated stabilizers, is measured on stretched tapes of 2 mil thickness on exposure to air in a forced draft oven at 115° C.

[3] = Solubility in hydrocarbon solvents; format: physicochemical; details: 24° to 25° C.
Procedure: This example provides solubility data for the instant stabilizers in two hydrocarbon solvents. The indicated stabilizer is dissolved in the minimal amount of solvent at 24° to 25° C. The value range reported is percent by weight of additive in total weight of solution.

[4] = FS/BL (fluorescent sunlight/black light) exposure of polypropylene films (5 mil); details: failure = 0.5 carbonyl absorbance
Source text: The samples are exposed in a fluorescent sunlight/black light chamber until failure. Failure is taken as the hours required to reach 0.5 carbonyl absorbance by infrared spectroscopy on the exposed films.

[5] = Angle to break of oven aged ABS plaques (ASTM D747); design: key: NB: No break; details: additive 0.225%
Procedure: This example illustrates the stabilization of acrylonitrile-butadiene-styrene (ABS) copolymer by the compounds of this invention. The testing procedure is as follows:
The antioxidant is dissolved in toluene and emulsified in water using Triton X-100 (Rohm & Haas) as a surfactant. The resultant emulsion is mixed well with ABS copolymer containing 40% butadiene (rubber). Steam coagulation of the emulsion/latex mixture yields 40% rubber stabilized ABS crumbs which are then dried at 80° C. for 30 minutes in a fluidized bed drier. The resultant crumbs are combined with styrene-acrylonitrile pellets on a two roll mill for six minutes. The resultant 15% rubber containing ABS milled sheet is compression molded at 400° F. into 60 mil plaques which are die cut into 1"×3" specimens. The sample plaques are then oven aged at 150° C. and the angle to break is monitored (ASTM D747). This consists of applying a set load through an angle with one stationary point and one moveable point, flexing the sample. The angle is monitored for several aging periods until the specimen breaks.

[6] = additive 0.2%, no co-stabilizer

Substance: Para-carbobutoxy-hydroxycalix(n)arene [Example 8]
Oxidative Stability Time to Failure ([1]; additive 0.1% with 0.3% DSTDP): 210 h
Oxidative Stability Time to Failure [1, 6]: 20 h

Substance: Para-[2(carbooctadecyloxy)ethyl]hydroxycalix[n]arene [Example 4]
Angle to Break (Oven Aged Samples) ([5]; 0 Min at 150° C.): NB
Angle to Break (Oven Aged Samples) ([5]; 30 Min at 150° C.): NB
Angle to Break (Oven Aged Samples) ([5]; 45 Min at 150° C.): NB
Angle to Break (Oven Aged Samples) ([5]; 60 Min at 150° C.): NB
Angle to Break (Oven Aged Samples) ([5]; 120 Min at 150° C.): 55
FS/BL Test Results (Hours to Failure) ([4]; additive 0.3% by weight): 240 h
Oxidative Stability Time to Failure ([1]; additive 0.1% with 0.3% DLTDP): 340 h
Oxidative Stability Time to Failure ([1]; additive 0.3%, no co-stabilizer): 150 h

Second part, led by results:

Oxidative Stability Time to Failure ([1]; additive 0.1% with 0.3% DSTDP): 250 h
Oxidative Stability Time to Failure [1, 6]: 30 h
Oxidative Stability Time to Failure [2]: 290 h
Substance: Para-carbooctadecyloxy-hydroxycalix(n)arene [Example 7]

wt/wt % Solubility in Toluene [3]: > 50 wt/wt %
Oxidative Stability Time to Failure ([1]; additive 0.1% with 0.3% DLTDP): 420 h
Oxidative Stability Time to Failure [1, 6]: 150 h
Substance: Para-[2-(carbododecyloxy)ethyl]hydroxycalix[n]arene [Example 3]
FS/BL Test Results (Hours to Failure) ([4]; additive 0.2% by weight): 230 h

Oxidative Stability Time to Failure ([1]; additive 0.1% with 0.3% DSTDP): 210 h
Oxidative Stability Time to Failure [1, 6]: 30 h
Substance: Para-carbododecyloxyhydroxy-calix(n)arene [Example 5]

Source: US4617336A, “Acylated calixarene stabilizers” (Ciba-Geigy Corporation, priority 1985, dated 1986)
